Several values for one entry are separate records, joined by “and”; a condition that tells them apart may be missing. Equal values may be shown once. Entries after “also recorded” stand apart in the source; their conditions may differ. No end group written: not given here.
Legend:
ADCYAP1 transcripts = assay: Quantitative PCR of ADCYAP1 transcripts in BNST of ovarectomized female rats after estradiol implants; format: in vivo, rat; conditions: OVX female rats, 21-day continuous release pellets, vs control implants
Excerpt: (§1) To establish the relationship between PACAP/PAC1 receptors and estrogen in a validated model of sex hormone regulation, estrogen-induced changes in ADCYAP1 and ADCYAP1R1 transcripts in the bed nucleus of stria terminalis (BNST) in female rats was examined. The BNST is a component of the extended amygdala that is subject to significant gonadal hormonal control. In rodents, it is critical for emotional behavior, mediating stress responses and the light-enhanced startle response. Quantitative PCR was performed (Hammack et al., Psychoneuroendocrinology 34, 833-43 (2009); Girard et al., J Neurochem 99(2): 499-513 (2006); Braas et al., Peptides September 28(9):1856-70 (2007)). Rats were implanted with 21-day continuous release pellets for delivery of estrogen. After rat euthanasia, the different brain regions were quickly dissected and frozen on dry ice. The tissues were homogenized in Stat-60 total RNA/mRNA isolation reagent (Tel-Test “B”, Friendswood, Tex.). […] Real-time quantitative PCR methods and oligonucleotide primers were exactly as described previously. The melting profiles for amplified DNA fragments were performed to verify unique product amplification in the quantitative PCR assays. […]

ADCYAP1R1 transcripts = assay: Quantitative PCR of ADCYAP1R1 transcripts in BNST of ovarectomized female rats after estradiol implants; format: in vivo, rat; conditions: OVX female rats, 21-day continuous release pellets, vs control implants
Excerpt: as §1

[1] = Body weight after acute BNST PACAP38 infusion; format: in vivo, rat; conditions: 24 hours after BNST infusion
Excerpt: (§2) For acute infusion studies, rats were anesthetized with isoflurane vapor and secured in a stereotaxic apparatus. After skin incision, the skull was exposed and four screws were inserted to provide skullcap stability. Two stainless steel cannulae (26 gauge, Plastics One, Roanoke, Va.) were lowered at a 20 degree angle just above the anterolateral bed nucleus of the stria terminalis (BNST), from bregma in mm; AP=−0.3, ML=±3.8 and DV=−5.3 from the surface of the dura. A skullcap was created with dental cement to hold the cannulae in place. One week after cannulation, the rats were acutely infused bilaterally into the BNST with PACAP38 (American Peptide Co., Sunnyvale, Calif.; 0.1, 0.5 or 1 μg in 0.5 μl) or saline/bovine serum albumin (BSA) vehicle; the infusion cannulae were left in place for 1 min before removal.
(§3) To further characterize the behavioral consequences of BNST PACAP38 infusion, rats were implanted with bilateral cannulae targeted at the BNST. One week following implantation, rats received BNST infusions of PACAP38 (1 μg/0.5 μl) or vehicle, and were tested for anxiety-like responses. Consistent with an anxiogenic effect of BNST PACAP on baseline acoustic startle responding, BNST PACAP38 infusion was anxiogenic on the elevated-plus maze as measured by open arm time (FIG. 12A, df=8, t=3.3, p=0.01).

Sprague-Dawley rats [2] = assay: Elevated plus maze after acute BNST PACAP38 infusion; format: in vivo, rat; conditions: BNST infusion 1 μg/0.5 μl vs vehicle
Excerpt: as §2, with “One week after cannulation, the rats were acutely infused bilaterally into the BNST with PACAP38 (American Peptide Co., Sunnyvale, Calif.; 0.1, 0.5 or 1 μg in 0.5 μl) or saline/bovine serum albumin (BSA) vehicle; the infusion cannulae were left in place for 1 min before removal.” left out
(§4) A plus maze of black painted wood and elevated 74 cm from the floor consisted of two opposing open and two opposing closed arms (each arm 60 cm long and 9 cm wide), which extended perpendicularly from a central square platform (9×9 cm). […] The sessions were captured digitally, and the time spent in the open and closed arms and the total number of crosses into the open arms were scored. […]
as §3, with “One week following implantation, rats received BNST infusions of PACAP38 (1 μg/0.5 μl) or vehicle, and were tested for anxiety-like responses.” left out

[3] = Long term PACAP(6-38) stability at 37° C. by radioimmunoassay; format: physicochemical
Experimental: (§5) Similar procedures were followed for chronic infusions. Once the BNST cannulae (Plastics One, Roanoke, Va.; No. 328OP/SPC) and skullcap were in place, the cannulae were attached to a single bifurcation connector (Plastics One, Roanoke, Va.; No. 21y) using 3 mm catheter tubing (Alzet, Cupertino, Calif.: OC 1.14 mm, ID 0.69 mm). The bifurcation connector was attached to 6.7 cm of catheter tubing attached to a mini-osmotic pump (Alzet, Cupertino, Calif.; No. 2002, 200 μl volume, 0.5 μl/h) containing either antagonist PACAP(6-38) (American Peptide Co., Sunnyvale, Calif.; 75 μM) or vehicle (0.05% BSA in saline). Long term PACAP(6-38) stability at 37° C. was assessed separately by daily aliquot removal for intact and amidated peptide radioimmunoassays. Peptide loss was 4%/day; final minipump PACAP(6-38) concentration at the end of the study was approximately 40 μM. All catheters were filled with vehicle to delay antagonist infusion into the BNST before the repeated variate stress procedure. The minipumps were primed according to manufacturer's instructions and secured subcutaneously in the interscapular space. The rats were returned to their home cages for 6 day postsurgical recovery; all rats were monitored for food/water intake and weighed daily.

Sprague-Dawley rats [4] = assay: Elevated plus-maze after chronic BNST PACAP(6-38) infusion during repeated variate stress; format: in vivo, rat
Experimental: as §5, with “All catheters were filled with vehicle to delay antagonist infusion into the BNST before the repeated variate stress procedure. The minipumps were primed according to manufacturer's instructions and secured subcutaneously in the interscapular space.” left out, “daily. […]” for “daily.”
as §4

[5] = Body weight during chronic BNST PACAP(6-38) infusion and repeated variate stress; format: in vivo, rat
Experimental: as §5, with “The minipumps were primed according to manufacturer's instructions and secured subcutaneously in the interscapular space.” left out, “daily. […]” for “daily.”
Weight data were analyzed using a 2×2×7 mixed ANOVA with stress and antagonist treatment as between subjects variables and percent weight change during the stress period as within subjects variables. […]

Sprague-Dawley rats [6] = assay: Novel object exploration test after chronic BNST PACAP(6-38) infusion during repeated variate stress; format: in vivo, rat; conditions: for effect on stress induced anxiety-related responses, novel object test: chronic BNST infusion, stressed rats
Experimental: as §5
Following acclimation or postsurgery recovery, each animal was randomly assigned to either a control or chronically stressed group. Control group animals remained in their home cages until euthanasia. […]
To determine whether BNST PACAP receptor signaling mediates the behavioral consequences of repeated stress, osmotic minipumps were attached to bilateral indwelling cannulae to chronically infuse the BNST with PACAP(6-38), a PAC1 receptor antagonist, during the seven day repeated variate stress procedure (see above, FIG. 13A). Animal weight and food intake were monitored daily during the entire duration of the experiment, and the animals were evaluated on the elevated plus-maze and novel-object exploration tests 24-48 hours after the last stressor exposure. […]

[7] = chronic BNST infusion by minipump (75 μM, 0.5 μl/h), stressed and non-stressed rats

C[C@]12CC[C@@H]3c4ccc(O)cc4CC[C@H]3[C@@H]1CC[C@@H]2O [estradiol]
increase of ADCYAP1 transcripts, dorsal BNST (ADCYAP1 transcripts): 2.1 fold
increase of ADCYAP1 transcripts, ventral BNST (ADCYAP1 transcripts): 3.4 fold
increase of ADCYAP1R1 mRNA, dorsal BNST (ADCYAP1R1 transcripts): 1.5 fold and 1.6 fold

PACAP38: 38-amino acid peptide form of PACAP (American Peptide Co.) (HSDGIFTDSYSRYRKQMAVKKYLAAVLGKRYKQRVKNK; ends and bridges not checked)
weight loss compared to vehicle-infused rats [1]: significantly more weight loss
weight loss ([1]; compared to vehicle controls): approximately 8 % of body weight
anxiety-like behavior on elevated-plus maze as measured by open arm time (Sprague-Dawley rats [2]): anxiogenic; also recorded: decreased open arm times
locomotor activity as measured by total number of arm entries (Sprague-Dawley rats [2]): not affected; also recorded: not changed

Phe-Thr-Asp-Ser-Tyr-Ser-Arg-Tyr-Arg-Lys-Gln-Met-Ala-Val-Lys-Lys-Tyr-Leu-Ala-Ala-Val-Leu-Gly-Lys-Arg-Tyr-Lys-Gln-Arg-Val-Lys-Asn-Lys (FTDSYSRYRKQMAVKKYLAAVLGKRYKQRVKNK) [PACAP(6-38)]
Peptide loss ([3]; intact and amidated peptide radioimmunoassays): 4 %/day
final minipump concentration at the end of the study ([3]; start 75 μM): approximately 40 μM
anxiety-like behavior on elevated plus maze (Sprague-Dawley rats [4]; [7]): anxiolytic
effect on stress induced anxiety-related responses, elevated plus-maze (Sprague-Dawley rats [4]; chronic BNST infusion, stressed rats): attenuated the stress induced anxiety-related responses
effect on body weight, non-stressed rats ([5]; chronic BNST infusion, no stress): no apparent effects; also recorded: gained weight steadily
effect on weight gain, stressed rats ([5]; continuous BNST infusion during seven day repeated variate stress): blocked the stress-induced changes in weight gain; also recorded: gained weight comparable to controls
anxiety-like behavior on novel object test (Sprague-Dawley rats [6]; [7]): anxiolytic
effect on stress induced anxiety-related responses, novel object test (Sprague-Dawley rats [6]): reverse the anxiogenic effect of stress
effect on stress induced anxiety-related responses, novel object test (Sprague-Dawley rats [6]; listed as PACAP receptor antagonist): attenuated the stress induced anxiety-related responses

From US10228378B2, “Diagnostic and therapeutic methods and products related to anxiety disorders” (The University of Vermont and State Agricultural College, priority 2011, dated 2019)
